This note sets out measurements from ChEMBL document CHEMBL1155732, “Anti-AIDS agents. 46. Anti-HIV activity of harman, an anti-HIV principle from Symplocos setchuensis, and its derivatives” (J Nat Prod, 2001).

Usually EC50 stands for the midpoint of the concentration-response curve. The IC50 is the point on the concentration scale where inhibition reaches its midpoint. High values mean lower potency, low ones higher potency.

Series [1] relates to Human immunodeficiency virus 1. Description: Antiviral activity against HIV1 in human H9 cells assessed as inhibition of viral replication. It is filed as functional, organism-based.
A further series relates to H9. Description: Cytotoxicity against human H9 cells. It is filed as cell-based.
The nature of series [2]: Therapeutic index, ratio of IC50 for human H9 cells to EC50 for HIV1. In kind it is cell-based. Conditions: for Ratio IC50/EC50: h9; for selectivity ratio: H9 cells, read-out: Ratio IC50/EC50; call rule not given here.
[3] abbreviates: Human immunodeficiency virus 1, H9, read-out: EC50.

Bounds are passed on as bounds.

For `Cc1cc(O)n2c(n1)nc1ccccc12`, in series [1] (h9), the EC50 result is listed as “Not Active”. In the series with H9 (Homo sapiens, H9), this compound displayed an IC50 of 118 µM.

For the compound `COc1ccc2c(c1)[nH]c1c(C)nccc12` [HARMINE], in series [2], the Ratio IC50/EC50 was determined as 50.8. The EC50 in series [1] (setting [3]) was 0.52 µM. Further, in the series on H9 (Homo sapiens, H9), the IC50 amounted to 26.4 µM.

On to `CCCCCCCCCCCCCCCCOc1ccc2c(c1)[nH]c1c(C)nccc12`, for which the EC50 result in series [1] (h9) was “Not Active”. This compound also yielded an IC50 in the series with H9 (Homo sapiens, H9) of 42.7 µM.

On to `CC1=NCCc2c1[nH]c1cc(O)ccc21.Cl` [HARMALOL HYDROCHLORIDE], for which the EC50 result in series [1] (h9) is recorded as “Not Active”. In addition, inhibition in the series with H9 (h9) was half-maximal at 87.1 µM (IC50).

In the case of `CCn1c2cc(OC)ccc2c2ccnc(C)c21`, the selectivity ratio in series [2] is 24.2. Moreover, in series [1] (setting [3]), the EC50 was 0.35 µM. Also, the IC50 with H9 (Homo sapiens, H9) came to 8.5 µM.

As for `CCCn1c2cc(OC)ccc2c2cc[n+](C)c(C)c21.[Br-]`, the Ratio IC50/EC50 in series [2] amounted to 2.2. Also, the EC50 in series [1] (setting [3]) amounted to 23.8 µM. The compound also yielded an IC50 in the series with H9 (Homo sapiens, H9) of 53.2 µM.

In the case of `CCCCCCCCCCOc1ccc2c(c1)[nH]c1c(C)nccc12`, the EC50 result in series [1] (h9) is listed as “Not Active”. The same compound registered an IC50 with H9 (Homo sapiens, H9) of 5.9 µM.

As to `CCCCCCCCC1NC(C(=O)O)Cc2c1[nH]c1ccccc21` (stereo not given), the EC50 entry in series [1] (h9) was “Not Active”. In addition, inhibition in the series on H9 (Homo sapiens, H9) was half-maximal at 60.4 µM (IC50).

As to `Br.CC1=NCCc2c1[nH]c1cc(O)ccc21`, in series [1] (h9), the EC50 entry is “Not Active”. Moreover, the IC50 in the series on H9 (Homo sapiens, H9) is 97.1 µM.

Turning to `COc1ccc2c(c1)[nH]c1c(/C=C/c3ccc([N+](=O)[O-])cc3)nccc12`, in series [1] (h9), the EC50 result is “Not Active”. For the same compound, in the series with H9 (Homo sapiens, H9), 15.4 µM corresponded to half-maximal inhibition (IC50).

Turning to `CCC[n+]1ccc2c([nH]c3cc(OC)ccc32)c1C.[I-]`, the Ratio IC50/EC50 in series [2] worked out at 5.8. The EC50 in series [1] (setting [3]) worked out at 9.6 µM. Further, the IC50 with H9 (Homo sapiens, H9) was found to be 55.4 µM.

Consider `Cc1nccc2c1[nH]c1ccccc12` [HARMAN], for which, in series [2], the selectivity ratio was found to be 10.4. For the same compound, the EC50 in series [1] (setting [3]) came out at 10.7 µM. The compound also gave an IC50 in the series with H9 (Homo sapiens, H9) of 112 µM.

Turning to `COc1cc([C@@H]2OC[C@@H]3[C@H]2CO[C@H]3c2ccc(O)c(OC)c2)ccc1O` [(+)-PINORESINOL], in series [1] (h9), the EC50 entry is “Not Active”. The compound also returned an IC50 with H9 (Homo sapiens, H9) of 67 µM.

Regarding `Cc1[nH]ccc2c1[nH]c1cc(=O)ccc12` [HARMOL], the Ratio IC50/EC50 in series [2] was 9.7. Moreover, in series [1] (setting [3]), the EC50 is 11.1 µM. This compound also displayed an IC50 in the series with H9 (Homo sapiens, H9) of 108 µM.

Regarding `COS(=O)(=O)O.Cc1nccc2c1[nH]c1ccccc12`, the “Ratio IC50/EC50” value in series [2] was determined as 7.5. Besides, the EC50 in series [1] (h9, read-out: EC50) amounted to 10.3 µM. The same compound registered an IC50 with H9 (h9) of 77.5 µM.

Consider `CC(=O)Oc1ccc2c(c1)[nH]c1c(C)nccc12`, for which the Ratio IC50/EC50 in series [2] is 6.2. The EC50 in series [1] (setting [3]) turned out to be 17.3 µM. This compound registered an IC50 in the series on H9 (Homo sapiens, H9) of 107 µM.

Take `COc1cc(C[C@H]2COC(=O)[C@@H]2Cc2ccc(O[C@@H]3O[C@H](CO)[C@@H](O)[C@H](O)[C@H]3O)c(OC)c2)ccc1O` [MATAIRESINOSIDE]: the EC50 result in series [1] (h9) is “Not Active”. Moreover, the IC50 with H9 (Homo sapiens, H9) is more than 192 µM.

With `CCOc1ccc2c(c1)[nH]c1c(C)nccc12`, the Ratio IC50/EC50 in series [2] came to 4. In addition, the EC50 in series [1] (setting [3]) worked out at 6.5 µM. The compound further registered an IC50 in the series on H9 (Homo sapiens, H9) of 25.9 µM.

`Cc1nccc2c1[nH]c1cc(OC(C)C)ccc12`: the EC50 entry in series [1] (h9) is reported as “Not Active”. The compound also yielded an IC50 in the series with H9 (Homo sapiens, H9) of 86.7 µM.

With `COc1ccc2c3ccnc(C)c3n(C)c2c1`, in series [2], the selectivity ratio was 9.2. Further, in series [1] (setting [3]), the EC50 worked out at 1.1 µM. Further, in the series with H9 (Homo sapiens, H9), the IC50 was 10.1 µM.

In the case of `COc1cc([C@H]2c3cc(O)c(OC)cc3C[C@@H](CO)[C@@H]2CO)ccc1O` [ISOLARICIRESINOL], the EC50 entry in series [1] (h9) is given as “Not Active”. The compound also came in with an IC50 in the series with H9 (Homo sapiens, H9) of more than 277 µM.

On to `COc1ccc2c(c1)[nH]c1c(C)[n+](C)ccc12.[I-]`, for which the Ratio IC50/EC50 in series [2] is 5.8. For the same compound, the EC50 in series [1] (setting [3]) was 8.6 µM. The compound also showed an IC50 in the series on H9 (Homo sapiens, H9) of 49.6 µM.

As for `COc1ccc2c3ccn(C)c(C)c-3nc2c1`, the Ratio IC50/EC50 in series [2] was 15.8. For the same compound, the IC50 in the series on H9 (Homo sapiens, H9) came out at 70.9 µM.

`CCCCCCOc1ccc2c(c1)[nH]c1c(C)nccc12`: the EC50 entry in series [1] (h9) is “Not Active”. In the series with H9 (Homo sapiens, H9), this compound registered an IC50 of 8.2 µM.

For the compound `CC1=NCCc2c1[nH]c1ccccc21`, the Ratio IC50/EC50 in series [2] stood at 3.4. The EC50 in series [1] (setting [3]) was 32 µM. Besides, the IC50 in the series with H9 (Homo sapiens, H9) is 110 µM.

`COc1cc2[nH]c3c(C)nccc3c2cc1Br`: the Ratio IC50/EC50 in series [2] was found to be 5.6. The EC50 in series [1] (h9, read-out: EC50) came out at 13.2 µM. The compound also displayed an IC50 in the series on H9 (h9) of 74 µM.

As to `c1ccc2c(c1)[nH]c1cnccc12` [NORHARMANE], the Ratio IC50/EC50 in series [2] is 3.2. The EC50 in series [1] (setting [3]) came to 44.1 µM. For the same compound, the midpoint of inhibition in the series on H9 (Homo sapiens, H9), the IC50, lay at 142 µM.

Consider `Br.COc1cc2[nH]c3c(C)nccc3c2cc1Br`, for which the Ratio IC50/EC50 in series [2] was 26.8. The EC50 in series [1] (h9, read-out: EC50) was determined as 0.22 µM. In addition, the IC50 with H9 (h9) was 5.9 µM.

As for `COc1cc(C[C@H]2COC(=O)[C@@H]2Cc2ccc(O)c(OC)c2)ccc1O` [MATAIRESINOL], the selectivity ratio in series [2] is 11. The EC50 in series [1] (setting [3]) stood at 2 µM. For the same compound, the IC50 with H9 (Homo sapiens, H9) is 21.9 µM.

Turning to `Cc1nccc2c1[nH]c1cc(OC(=O)C34CCC(C)(C(=O)O3)C4(C)C)ccc12` (stereo not given), the EC50 result in series [1] (h9) was “Not Active”. The same compound displayed an IC50 with H9 (Homo sapiens, H9) of 58.9 µM.

Turning to `CCCCn1c2cc(OC)ccc2c2ccnc(C)c21`, in series [2], the selectivity ratio came out at 210. The EC50 in series [1] (setting [3]) came to 0.037 µM. The same compound displayed an IC50 in the series with H9 (Homo sapiens, H9) of 7.8 µM.

On to `COc1cc(C[C@H]2COC(=O)[C@@H]2Cc2ccc(OC(C)=O)c(OC)c2)ccc1OC(C)=O`, for which the selectivity ratio in series [2] was found to be 7.1. In series [1] (setting [3]), the EC50 was determined as 6.9 µM. Moreover, the IC50 with H9 (Homo sapiens, H9) turned out to be 49.3 µM.

For `COc1ccc2c3c([nH]c2c1)C(C)N(N=O)CC3` (stereo not given), the selectivity ratio in series [2] is 8. Besides, in series [1] (setting [3]), the EC50 turned out to be 7.1 µM. In the series on H9 (Homo sapiens, H9), this compound registered an IC50 of 56.5 µM.
